# Like-named read-outs stand apart in the source and are kept apart here.
# Experiments:
# Assay type in all cases: binding
# [1] = biological target: T1, HeLa cell extract proteins (Homo sapiens, UniProt Q9BVS4)
# T1 construct: endogenous in cells; host or cells: HeLa cell extract
# [2] = biological target: T2, HeLa cell extract proteins (Homo sapiens, UniProt P00403)
# T2 construct: endogenous in cells; host or cells: HeLa cell extract
# [3] = biological target: T3, HeLa cell extract proteins (Homo sapiens, UniProt P16070)
# T3 construct: endogenous in cells; host or cells: HeLa cell extract
# T3 sequence (P16070 21-742): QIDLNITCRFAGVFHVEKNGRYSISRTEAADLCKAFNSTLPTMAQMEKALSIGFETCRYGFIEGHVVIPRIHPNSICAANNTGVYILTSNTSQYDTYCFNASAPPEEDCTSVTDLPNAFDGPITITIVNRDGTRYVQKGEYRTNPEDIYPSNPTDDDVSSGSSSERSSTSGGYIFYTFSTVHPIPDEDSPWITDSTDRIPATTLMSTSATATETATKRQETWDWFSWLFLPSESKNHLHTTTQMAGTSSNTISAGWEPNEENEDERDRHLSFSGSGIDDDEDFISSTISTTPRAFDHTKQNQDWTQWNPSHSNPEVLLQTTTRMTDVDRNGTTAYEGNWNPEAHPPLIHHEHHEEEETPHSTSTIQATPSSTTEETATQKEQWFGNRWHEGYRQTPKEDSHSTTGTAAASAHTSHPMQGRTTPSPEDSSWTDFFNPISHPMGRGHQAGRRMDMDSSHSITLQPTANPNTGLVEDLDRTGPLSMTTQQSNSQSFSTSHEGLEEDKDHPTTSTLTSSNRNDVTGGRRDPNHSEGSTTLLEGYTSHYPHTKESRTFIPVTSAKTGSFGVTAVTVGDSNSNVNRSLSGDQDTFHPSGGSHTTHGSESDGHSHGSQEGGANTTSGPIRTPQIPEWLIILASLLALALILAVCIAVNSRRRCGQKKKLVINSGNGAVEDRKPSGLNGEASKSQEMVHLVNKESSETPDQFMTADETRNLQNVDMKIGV
# [4] = biological target: T4, HeLa cell extract proteins (Homo sapiens, UniProt P25788)
# T4 construct: endogenous in cells; host or cells: HeLa cell extract
# T4 sequence (P25788 1-255): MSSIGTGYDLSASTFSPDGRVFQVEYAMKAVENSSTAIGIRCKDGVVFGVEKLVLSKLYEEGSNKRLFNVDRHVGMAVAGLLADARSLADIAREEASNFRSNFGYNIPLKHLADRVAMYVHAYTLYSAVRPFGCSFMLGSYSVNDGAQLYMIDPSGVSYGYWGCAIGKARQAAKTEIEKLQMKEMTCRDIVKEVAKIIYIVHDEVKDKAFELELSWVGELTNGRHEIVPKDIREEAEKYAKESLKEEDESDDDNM
# [5] = biological target: T5, HeLa cell extract proteins (Homo sapiens, UniProt Q08209)
# T5 construct: endogenous in cells; host or cells: HeLa cell extract
# [6] = biological target: T6, HeLa cell extract proteins (Homo sapiens, UniProt Q7L8L6)
# T6 construct: endogenous in cells; host or cells: HeLa cell extract
# T6 sequence (Q7L8L6 28-764): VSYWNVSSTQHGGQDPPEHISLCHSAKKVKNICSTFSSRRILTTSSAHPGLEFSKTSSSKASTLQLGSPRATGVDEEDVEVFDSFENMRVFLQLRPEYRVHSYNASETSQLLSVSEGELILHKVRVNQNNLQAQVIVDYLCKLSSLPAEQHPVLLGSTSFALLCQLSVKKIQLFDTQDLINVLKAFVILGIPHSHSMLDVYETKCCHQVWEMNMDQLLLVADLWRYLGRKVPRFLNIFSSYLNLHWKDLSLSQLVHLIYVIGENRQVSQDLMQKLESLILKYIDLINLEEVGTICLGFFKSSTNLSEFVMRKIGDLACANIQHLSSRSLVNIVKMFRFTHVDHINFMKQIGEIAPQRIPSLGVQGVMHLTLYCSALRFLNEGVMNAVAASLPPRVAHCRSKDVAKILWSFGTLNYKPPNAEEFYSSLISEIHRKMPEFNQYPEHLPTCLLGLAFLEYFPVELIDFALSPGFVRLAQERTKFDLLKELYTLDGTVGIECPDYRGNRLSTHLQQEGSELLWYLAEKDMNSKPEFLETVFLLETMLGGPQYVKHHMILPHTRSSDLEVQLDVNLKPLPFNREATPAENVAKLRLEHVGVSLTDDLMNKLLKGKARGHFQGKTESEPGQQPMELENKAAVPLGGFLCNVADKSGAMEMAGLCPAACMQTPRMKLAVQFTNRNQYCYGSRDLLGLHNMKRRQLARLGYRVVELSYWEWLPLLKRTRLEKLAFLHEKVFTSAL
# [7] = biological target: T7, HeLa cell extract proteins (Homo sapiens, UniProt Q9UJX4)
# T7 construct: endogenous in cells; host or cells: HeLa cell extract
# T7 sequence (Q9UJX4 whole entry): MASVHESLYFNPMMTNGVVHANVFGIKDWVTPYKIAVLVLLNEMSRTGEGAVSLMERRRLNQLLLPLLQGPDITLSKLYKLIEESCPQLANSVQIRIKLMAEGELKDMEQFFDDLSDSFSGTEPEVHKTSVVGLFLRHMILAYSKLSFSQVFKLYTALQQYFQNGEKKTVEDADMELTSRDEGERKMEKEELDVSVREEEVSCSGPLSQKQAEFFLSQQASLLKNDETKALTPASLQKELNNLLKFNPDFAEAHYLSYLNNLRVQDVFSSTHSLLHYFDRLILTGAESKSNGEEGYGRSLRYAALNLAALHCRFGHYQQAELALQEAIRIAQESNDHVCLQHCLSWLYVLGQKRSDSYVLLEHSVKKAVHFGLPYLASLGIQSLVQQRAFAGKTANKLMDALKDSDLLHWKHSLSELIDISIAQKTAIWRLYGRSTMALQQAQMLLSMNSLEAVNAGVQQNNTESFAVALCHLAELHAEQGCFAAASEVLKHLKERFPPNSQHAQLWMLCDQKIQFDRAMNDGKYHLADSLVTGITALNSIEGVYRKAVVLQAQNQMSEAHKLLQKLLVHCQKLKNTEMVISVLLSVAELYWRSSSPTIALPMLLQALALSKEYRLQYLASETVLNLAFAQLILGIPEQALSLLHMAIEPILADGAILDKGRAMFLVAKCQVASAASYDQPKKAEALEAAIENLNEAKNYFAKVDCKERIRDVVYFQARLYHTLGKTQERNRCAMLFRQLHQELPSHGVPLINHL
# [8] = biological target: T8, HeLa cell extract proteins (Homo sapiens, UniProt P16278)
# T8 construct: endogenous in cells; host or cells: HeLa cell extract
# T8 sequence (P16278 29-677): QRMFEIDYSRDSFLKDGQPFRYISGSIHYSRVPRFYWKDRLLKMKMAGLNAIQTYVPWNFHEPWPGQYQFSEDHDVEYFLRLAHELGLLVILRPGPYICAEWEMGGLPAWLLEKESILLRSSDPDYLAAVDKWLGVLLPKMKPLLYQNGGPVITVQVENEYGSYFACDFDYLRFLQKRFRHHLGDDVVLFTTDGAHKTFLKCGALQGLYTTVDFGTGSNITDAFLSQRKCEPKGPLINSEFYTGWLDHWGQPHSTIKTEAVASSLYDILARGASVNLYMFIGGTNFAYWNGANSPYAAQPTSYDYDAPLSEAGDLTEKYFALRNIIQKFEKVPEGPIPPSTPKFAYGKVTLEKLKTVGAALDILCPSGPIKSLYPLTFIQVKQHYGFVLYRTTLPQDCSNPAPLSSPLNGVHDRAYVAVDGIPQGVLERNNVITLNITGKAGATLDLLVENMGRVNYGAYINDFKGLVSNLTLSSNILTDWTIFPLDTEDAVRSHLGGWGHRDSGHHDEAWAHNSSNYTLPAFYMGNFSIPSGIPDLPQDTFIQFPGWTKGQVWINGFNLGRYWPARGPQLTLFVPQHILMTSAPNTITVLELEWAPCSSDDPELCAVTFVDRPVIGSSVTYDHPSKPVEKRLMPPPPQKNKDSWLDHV
# [9] = biological target: T9, HeLa cell extract proteins (Homo sapiens, UniProt P13674)
# T9 construct: endogenous in cells; host or cells: HeLa cell extract
# T9 sequence (P13674 18-534): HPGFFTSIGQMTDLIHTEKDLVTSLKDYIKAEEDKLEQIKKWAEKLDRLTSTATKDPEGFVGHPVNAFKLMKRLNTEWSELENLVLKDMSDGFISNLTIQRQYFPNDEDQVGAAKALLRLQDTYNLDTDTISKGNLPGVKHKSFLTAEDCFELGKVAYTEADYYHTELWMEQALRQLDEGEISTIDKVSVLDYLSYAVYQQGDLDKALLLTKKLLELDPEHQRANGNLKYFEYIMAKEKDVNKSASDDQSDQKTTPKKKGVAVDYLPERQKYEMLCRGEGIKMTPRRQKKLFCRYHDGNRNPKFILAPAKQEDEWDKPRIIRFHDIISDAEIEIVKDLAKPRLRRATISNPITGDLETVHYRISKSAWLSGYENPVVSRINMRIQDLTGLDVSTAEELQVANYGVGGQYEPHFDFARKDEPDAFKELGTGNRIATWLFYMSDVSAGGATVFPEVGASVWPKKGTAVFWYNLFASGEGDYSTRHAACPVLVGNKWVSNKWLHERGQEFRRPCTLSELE
# [10] = biological target: T10, HeLa cell extract proteins (Homo sapiens, UniProt Q13315)
# T10 construct: endogenous in cells; host or cells: HeLa cell extract
# T2 sequence (P00403 whole entry): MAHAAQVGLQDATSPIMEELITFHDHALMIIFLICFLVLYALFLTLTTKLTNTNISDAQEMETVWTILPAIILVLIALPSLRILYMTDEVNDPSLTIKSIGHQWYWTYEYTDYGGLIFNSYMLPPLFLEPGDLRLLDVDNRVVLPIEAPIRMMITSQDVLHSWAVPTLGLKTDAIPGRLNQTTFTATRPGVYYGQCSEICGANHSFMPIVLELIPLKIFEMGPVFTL
# T1 sequence (Q9BVS4 whole entry): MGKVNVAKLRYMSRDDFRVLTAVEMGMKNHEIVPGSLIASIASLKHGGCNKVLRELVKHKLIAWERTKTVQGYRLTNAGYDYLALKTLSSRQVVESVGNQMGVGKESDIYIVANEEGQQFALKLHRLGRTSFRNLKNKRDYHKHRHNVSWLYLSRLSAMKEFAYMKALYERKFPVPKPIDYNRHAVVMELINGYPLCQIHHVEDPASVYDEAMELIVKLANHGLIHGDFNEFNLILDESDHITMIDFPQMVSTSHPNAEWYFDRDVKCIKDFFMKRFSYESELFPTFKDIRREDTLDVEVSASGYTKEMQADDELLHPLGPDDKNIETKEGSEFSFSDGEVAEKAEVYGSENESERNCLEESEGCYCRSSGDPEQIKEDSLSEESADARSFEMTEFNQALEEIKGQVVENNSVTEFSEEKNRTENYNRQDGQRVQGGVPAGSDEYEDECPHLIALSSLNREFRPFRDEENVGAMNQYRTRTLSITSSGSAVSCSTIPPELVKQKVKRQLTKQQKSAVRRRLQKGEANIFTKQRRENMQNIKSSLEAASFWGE
SMILES,"fold changes relative to vehicle control ([1]; HeLa, protein RIOK2)","fold changes relative to vehicle control ([2]; protein COX2, HeLa)","fold changes relative to vehicle control ([3]; protein CD44, HeLa)","fold changes relative to vehicle control ([4]; HeLa, captured protein PSMA3)","fold changes relative to vehicle control ([5]; HeLa, protein PPP3CA)","fold changes relative to vehicle control ([6]; HeLa, protein FASTKD5)","fold changes relative to vehicle control ([7]; HeLa, captured protein ANAPC5)","fold changes relative to vehicle control ([8]; HeLa, captured protein GLB1)","fold changes relative to vehicle control ([9]; HeLa, captured protein P4HA1)","fold changes relative to vehicle control ([10]; HeLa, protein ATM)","fold changes relative to vehicle control ([1]; captured protein RIOK2, HeLa)","fold changes relative to vehicle control ([2]; captured protein COX2, HeLa)","fold changes relative to vehicle control ([4]; protein PSMA3, HeLa)","fold changes relative to vehicle control ([6]; captured protein FASTKD5, HeLa)","fold changes relative to vehicle control ([7]; captured protein ANAPC5, HeLa)","fold changes relative to vehicle control ([8]; captured protein GLB1, HeLa)","fold changes relative to vehicle control ([9]; HeLa, protein P4HA1)",further results
"Nc1nc2c(c(=O)[nH]1)N(C=O)C(CNc1ccc(C(=O)N[C@@H](CCC(=O)O)C(=O)O)cc1)CN2 (stereo partly shown) [LEU, leucovorin]",0.84,1.05,1.08,1.02,0.97,0.87,1.07,1.01,1.02,0.92,,,,,,,,
"Nc1nc2[nH]cc(CCc3ccc(C(=O)N[C@@H](CCC(=O)O)C(=O)O)cc3)c2c(=O)[nH]1 [PTX, pemetrexed]",,,,,,,,,,,,,,,,,,fold changes relative to vehicle control [1]: 0.33; fold changes relative to vehicle control [2]: 1.24; fold changes relative to vehicle control [3]: 1.04; fold changes relative to vehicle control [4]: 0.99; fold changes relative to vehicle control [5]: 0.91; fold changes relative to vehicle control [6]: 0.84; fold changes relative to vehicle control [7]: 1.07; fold changes relative to vehicle control [8]: 0.99; fold changes relative to vehicle control [9]: 0.88; fold changes relative to vehicle control [10]: 1.04
CCCCCCOc1ccc(Cc2cnc(N)nc2N)cc1 [compound 1],,,1.08,,1.1,,,,,1.03,0.94,0.99,1.04,1.07,1.06,0.96,0.9,
CCCCCCOc1cccc(Cc2cnc(N)nc2N)c1 [compound 2],,,1.42,,1.13,,,,,1.01,0.95,0.95,1.27,0.94,1,0.9,1.05,
Nc1nc2cccc(-c3ccccc3)c2n1Cc1ccc(Cl)c(Cl)c1 [compound 3],,,1.49,,1.03,,,,,1.14,0.95,1.14,0.86,1.06,1.07,0.99,0.98,
NCCOCCOCC(=O)Nc1nc2ncc(CNc3ccc(C(=O)NC(CCC(=O)O)C(=O)O)cc3)nc2c(=O)[nH]1 (stereo not shown) [compound 6],0.82,1.33,1.3,1.01,0.95,0.88,1.05,0.99,1,1.1,,,,,,,,
NCCCNc1ccc(C(=O)NC(CCC(=O)O)C(=O)O)cc1 (stereo not shown) [compound 7],0.87,1.27,1.06,0.98,0.85,0.97,1.1,1.07,1.04,1.09,,,,,,,,

# From paper PMC6199744, “Development of Chemical Proteomics for the Folateome and Analysis of the Kinetoplastid Folateome” (ACS Infectious Diseases, 2018)
